One data set addresses MDM2 (Homo sapiens (Human), UniProt Q00987). As to the kind of experiment: In vitro MDM2 HTRF assay (inhibition of p53-MDM2 interaction). Particulars: GST-MDM2 / biotinylated p53 peptide. It is filed as binding. Background: TR-FRET usually uses a lanthanide donor and a delayed reading to cut background.
Data set [1] has as its system BCL-2-dependent acute lymphoblastic leukemia (ALL) cell line RS4;11 overexpressing Bcl-2 G101V. Kind of data set: cells. Particulars: Homo sapiens, RS4-11; about 72 hours, ATPlite luminescence; read-out: RS4;11-G101V IC50. It is filed as cell-based. Put shortly:
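About 1×10^4 cells per well treated with compound for about 72 hours in medium with 5% FBS or 10% normal human serum. Viability from ATP-based luminescence (ATPlite) after lysis; IC50 derived from dose range.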

A short description of the next data set: Mice PK study. It is filed as in vivo. To be noted: 25 mg/kg; Oral, 25 mpk, CD-1 mouse, plasma. Here is the method: Biological Example 4: Mice PK Study
The pharmacokinetics of compounds were evaluated in CD-1 mouse via Intravenous and Oral Administration. The IV dose was administered as a slow bolus in the Jugular vein, and oral doses were administered by gavage. The formulation for IV dosing was 5% DMSO in 20% HPBCD in water, and the PO formulation was 2.5% DMSO, 10% EtOH, 20% Cremphor EL, 67.5% D5W. The PK time point for the IV arm was 5, 15, 30 min, 1, 2, 4, 6, 8, 12, 24 hours post dose, and for PO arm was 15, 30 min, 1, 2, 4, 6, 8, 12, 24 hours post dose. Approximately 0.03 mL blood was collected at each time point. Blood of each sample was transferred into plastic micro centrifuge tubes containing EDTA-K2 and collect plasma within 15 min by centrifugation at 4000 g for 5 minutes in a 4° C. centrifuge. Plasma samples were stored in polypropylene tubes. The samples were stored in a freezer at −75±15° C. prior to analysis. Concentrations of compounds in the plasma samples were analyzed using a LC-MS/MS method. […] The following pharmacokinetic parameters were calculated, whenever possible from the plasma concentration versus time data: IV administration: C0, CL, Vd, T1/2, AUCinf, AUClast, MRT, Number of Points for Regression; PO administration: Cmax, Tmax, T1/2, AUCinf, AUClast, F %, Number of Points for Regression. […]

We go through 6 compounds from patent publication US20250073340A1, “SPIROCYCLIC MDM2 MODULATOR AND USES THEREOF” (Newave Pharmaceutical Inc., priority 2021, published 2025).

Sequence of MDM2 (Q00987 whole entry): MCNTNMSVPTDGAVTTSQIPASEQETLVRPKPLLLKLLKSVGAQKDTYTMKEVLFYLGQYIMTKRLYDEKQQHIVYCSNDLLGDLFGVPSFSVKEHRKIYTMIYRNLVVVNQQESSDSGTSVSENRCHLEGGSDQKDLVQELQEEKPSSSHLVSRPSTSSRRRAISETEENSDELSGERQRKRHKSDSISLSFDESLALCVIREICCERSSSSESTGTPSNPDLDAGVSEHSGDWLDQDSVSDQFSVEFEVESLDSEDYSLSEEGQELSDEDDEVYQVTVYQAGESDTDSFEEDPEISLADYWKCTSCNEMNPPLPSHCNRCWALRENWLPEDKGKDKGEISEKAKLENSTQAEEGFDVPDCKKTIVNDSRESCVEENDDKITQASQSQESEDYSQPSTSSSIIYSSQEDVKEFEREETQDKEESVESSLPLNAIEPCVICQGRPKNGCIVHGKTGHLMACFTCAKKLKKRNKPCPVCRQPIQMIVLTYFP

As to `COc1cc(C(=O)N2CC[C@H](C#Cc3cccc4c3CN(C3CCC(=O)NC3=O)C4=O)C2)ccc1NC(=O)[C@@H]1N[C@@H](CC(C)(C)C)[C@@]2(CNc3cc(Cl)ccc32)[C@H]1c1cccc(Cl)c1F` (stereo partly drawn) [Example 48, (2′S,3S,4′S,5′R)-6-chloro-4′-(3-chloro-2-fluorophenyl)-2′-(2,2-dimethylpropyl)-N-{4-[(3R)-3-{2-[2-(2,6-dioxopiperidin-3-yl)-1-oxo-3H-isoindol-4-yl]ethynyl}pyrrolidine-1-carbonyl]-2-methoxyphenyl}-1,2-dihydrospiro[indole-3,3′-pyrrolidine]-5′-carboxamide], the IC50 on MDM2 amounted to 1.21 nM; in data set [1], 12.4 nM.
In the case of `COc1cc(C(=O)N2CC[C@@H](C#Cc3cccc4c3CN(C3CCC(=O)NC3=O)C4=O)C2)ccc1NC(=O)[C@@H]1N[C@@H](CC(C)(C)C)[C@@]2(CNc3cc(Cl)ccc32)[C@H]1c1cccc(Cl)c1F` (stereo partly drawn) [Example 49, (2′S,3S,4′S,5′R)-6-chloro-4′-(3-chloro-2-fluorophenyl)-2′-(2,2-dimethylpropyl)-N-{4-[(3S)-3-{2-[2-(2,6-dioxopiperidin-3-yl)-1-oxo-3H-isoindol-4-yl]ethynyl}pyrrolidine-1-carbonyl]-2-methoxyphenyl}-1,2-dihydrospiro[indole-3,3′-pyrrolidine]-5′-carboxamide], the IC50 on MDM2 came to 1.05 nM; in data set [1], 14.1 nM.
Taken in the same sequence, the figures for `COc1cc(C(=O)N[C@@H]2CCCN(CC#Cc3cccc4c3CN(C3CCC(=O)NC3=O)C4=O)C2)ccc1NC(=O)[C@@H]1N[C@@H](CC(C)(C)C)[C@@]2(CNc3cc(Cl)ccc32)[C@H]1c1cccc(Cl)c1F` (stereo partly drawn) [Example 50, (2′S,3S,4′S,5′R)-6-chloro-4′-(3-chloro-2-fluorophenyl)-2′-(2,2-dimethylpropyl)-N-(4-{[(3R)-1-{3-[2-(2,6-dioxopiperidin-3-yl)-1-oxo-3H-isoindol-4-yl]prop-2-yn-1-yl}piperidin-3-yl]carbamoyl}-2-methoxyphenyl)-1,2-dihydrospiro[indole-3,3′-pyrrolidine]-5′-carboxamide] were 1.59 nM and 23.5 nM.
For the compound `COc1cc(C(=O)N2CCN(CC#Cc3cccc4c3CN(C3CCC(=O)NC3=O)C4=O)CC2)ccc1NC(=O)[C@@H]1N[C@@H](CC(C)(C)C)[C@@]2(CNc3cc(Cl)ccc32)[C@H]1c1cccc(Cl)c1F` (stereo partly drawn) [Example 51, (2′S,3S,4′S,5′R)-6-chloro-4′-(3-chloro-2-fluorophenyl)-2′-(2,2-dimethylpropyl)-N-[4-(4-{3-[2-(2,6-dioxopiperidin-3-yl)-1-oxo-3H-isoindol-4-yl]prop-2-yn-1-yl}piperazine-1-carbonyl)-2-methoxyphenyl]-1,2-dihydrospiro[indole-3,3′-pyrrolidine]-5′-carboxamide], the IC50 at MDM2 amounted to 1.42 nM; in data set [1], 18.3 nM.
The like results for `COc1cc(C(=O)N2CCC3(CC2)C[C@@H]3C#Cc2cccc3c2CN([C@H]2CCC(=O)NC2=O)C3=O)ccc1NC(=O)[C@@H]1N[C@@H](CC(C)(C)C)[C@@]2(CNc3cc(C(F)(F)F)ncc32)[C@H]1c1cccc(Cl)c1F` [Example 56, (2S,3S,4S,5R)-4-(3-chloro-2-fluorophenyl)-N-(4-((S)-1-((2-((S)-2,6-dioxopiperidin-3-yl)-1-oxoisoindolin-4-yl)ethynyl)-6-azaspiro[2.5]octane-6-carbonyl)-2-methoxyphenyl)-2-neopentyl-6′-(trifluoromethyl)-1′,2′-dihydrospiro[pyrrolidine-3,3′-pyrrolo[3,2-c]pyridine]-5-carboxamide] were, in that order, 23.4 nM and 1.09 nM.
Regarding `COc1cc(C(=O)N2CCC3(CC2)C[C@@H]3C#Cc2cccc3c2CN([C@H]2CCC(=O)NC2=O)C3=O)ccc1NC(=O)[C@@H]1N[C@@H](CC(C)(C)C)[C@@]2(CNc3cc(Cl)ccc32)[C@H]1c1cccc(Cl)c1F` [Example 58, (2′S,3S,4′S,5′R)-6-chloro-4′-(3-chloro-2-fluorophenyl)-2′-(2,2-dimethylpropyl)-N-{4-[(1S)-1-(2-{2-[(3S)-2,6-dioxopiperidin-3-yl]-1-oxo-3H-isoindol-4-yl}ethynyl)-6-azaspiro[2.5]octane-6-carbonyl]-2-methoxyphenyl}-1,2-dihydrospiro[indole-3,3′-pyrrolidine]-5′-carboxamide], the IC50 stood at 3.38 nM on MDM2 and 7.71 nM in data set [1]. This compound registered an AUC in “Mice PK study” of 49400 ng·h/mL.

A word on the AUC: it is concentration integrated over time. A low value points to low exposure.
